Experimental data as given in patent US20130158362A1 (INFACARE PHARMACEUTICAL CORPORATION, priority 2011, published 2013).

Tested on: total serum bilirubin (TSB)
Assay: Phase 2b trial: total serum bilirubin (TSB), adjusted and unadjusted, change from baseline
Format: in vivo, human
Design: total serum bilirubin / total serum bilirubin, Delta (change from baseline) / Change from baseline of total serum bilirubin: unit not given here
Conditions: for change from baseline in unadjusted TSB, Mean (SD) / change from baseline in unadjusted TSB, Median / unadjusted TSB, Mean (SD) / unadjusted TSB, Median / change from baseline in adjusted TSB, LS mean (SEM) / change from baseline in adjusted TSB, LS mean difference versus placebo / change from baseline in unadjusted TSB, LS Mean (SEM) / change from baseline in unadjusted TSB, LS Mean Difference versus placebo / adjusted TSB, Mean (SD) / change from baseline in adjusted TSB, Mean (SD) / change from baseline in adjusted TSB, Median / change from baseline in adjusted TSB, LS mean difference versus placebo, MMRM / change from baseline in adjusted TSB, LS means (SEM), MMRM: ITT; for Change from baseline of total serum bilirubin: 4.5 mg/kg (N = 5); for change from baseline in adjusted TSB, LS mean difference versus placebo, MMRM / change from baseline in adjusted TSB, LS means (SEM), MMRM: observed case
Protocol: Three cohorts of subjects were recruited. This clinical study was designed to evaluate safety and efficacy parameters in each cohort.
Scheduled assessments (including TSB) occurred before treatment and at 0.75 and 2 hours (or 1.5 and 3 hours, depending on PK blood sampling assignment); 6, 12, 24, 48, and 72 hours; and 14 and 30 (except TSB) days after treatment or early termination.
The primary efficacy endpoint was the change in adjusted TSB from baseline to 48 hours after treatment. The adjusted TSB was a calculation of the percentage variance of the TSB level from the age specific threshold for PT initiation per the AAP Guidelines, i.e., an indication of the distance below the PT threshold by time.
The Secondary Efficacy Endpoints were the change from baseline in unadjusted TSB at 48 hours after treatment, change from baseline in adjusted and unadjusted TSB at various other time points after treatment, percent change from baseline in unadjusted TSB, proportion of subjects who require PT/exchange transfusion (ET), time to PT/ET, duration of PT and time to hospital discharge.
Intent-to-treat population (ITT): Defined as all subjects who were randomly assigned treatment in the clinical study, had received IMP, and had at least 1 post baseline TSB measurement during the first 48 hours after treatment. Subjects were summarized based on randomized treatment.
Analysis of Efficacy Parameters: The primary efficacy analysis applied the analysis of covariance (ANCOVA) method to determine if there was a significant difference between treatment groups in change in adjusted TSB levels from baseline to 48 hours post baseline after controlling for the effects of gestational age and adjusted baseline TSB levels. If assumptions of ANCOVA appeared to be violated, a Wilcoxon rank-sum test could be performed instead. Time-to-event variables were analyzed using the Kaplan-Meier method, and Kaplan-Meier survival curves were presented.

[1] = 3.0 mg/kg IM, 72 h, LOCF, ANCOVA
[2] = 3.0 mg/kg IM, 14 days/early termination, LOCF
[3] = 3.0 mg/kg IM, 14 days/early termination, LOCF, ANCOVA
[4] = 3.0 mg/kg versus the placebo group, 48 Hours/Early termination, PP Population, ANCOVA
[5] = 3.0 mg/kg, 48 Hours/Early termination, PP Population, LOCF
[6] = 3.0 mg/kg, 6 hrs, unadjusted TSB, ITT Population
[7] = 3.0 mg/kg, 12 hrs, unadjusted TSB, ITT Population
[8] = 3.0 mg/kg, 24 hrs, unadjusted TSB, ITT Population
[9] = 3.0 mg/kg, 48 hrs, unadjusted TSB, ITT Population
[10] = 3.0 mg/kg, baseline, PP Population
[11] = 3.0 mg/kg, baseline, unadjusted TSB, ITT Population
[12] = 4.5 mg/kg IM, 6 h, LOCF, ANCOVA
[13] = 4.5 mg/kg IM, 12 h, LOCF, ANCOVA

In the case of “tin IV mesoporphyrin IX dichloride [Stannsoporfin]”, the “change from baseline in unadjusted TSB, Mean (SD)” value (3.0 mg/kg IM, 72 h, LOCF) is reported as 1.66 (3.496) mg/dL, the “change from baseline in unadjusted TSB, Median” value (3.0 mg/kg IM, 72 h, LOCF) is reported as 2.45 mg/dL and the “unadjusted TSB, Mean (SD)” value (3.0 mg/kg IM, 72 h, LOCF) is reported as 9.87 (3.681) mg/dL. For the same substance, the “unadjusted TSB, Median” value (3.0 mg/kg IM, 72 h, LOCF) was 10.70 mg/dL, the “change from baseline in adjusted TSB, LS mean (SEM)” value [1] was −19.28 (6.633) % and the “change from baseline in adjusted TSB, LS mean difference versus placebo” value [1] was −14.53%. The “change from baseline in unadjusted TSB, LS Mean (SEM)” value [1] was 2.77 (1.133) mg/dL, the “change from baseline in unadjusted TSB, LS Mean Difference versus placebo” value [1] was -2.18 mg/dL and the “change from baseline in unadjusted TSB, Mean (SD)” value [2] was −2.98 (5.389) mg/dL. The “change from baseline in unadjusted TSB, Median” value [2] was -4.80 mg/dL, the “unadjusted TSB, Mean (SD)” value [2] was 5.23 (5.123) mg/dL and the “unadjusted TSB, Median” value [2] was 3.40 mg/dL. For the same substance, the “change from baseline in unadjusted TSB, LS Mean (SEM)” value [3] was −2.42 (1.324) mg/dL, the “change from baseline in unadjusted TSB, LS Mean Difference versus placebo” value [3] was -0.12 mg/dL and the “48 Hours/Early termination change from baseline in unadjusted TSB, LS mean difference” value [4] was -1.74 mg/dL. For the same substance, the “P-value of LS mean difference, change from baseline in unadjusted TSB” value [4] was 0.078, the “48 Hours/Early termination change from baseline in unadjusted TSB, Max” value [5] was 5.4 mg/dL and the “48 Hours/Early termination change from baseline in unadjusted TSB, Mean (SD)” value [5] was 2.20 (2.928) mg/dL. The “48 Hours/Early termination change from baseline in unadjusted TSB, Median” value [5] was 2.87 mg/dL, the “48 Hours/Early termination change from baseline in unadjusted TSB, Min” value [5] was -3.4 mg/dL and the “48 Hours/Early termination unadjusted TSB, Max” value [5] was 13.8 mg/dL. The “48 Hours/Early termination unadjusted TSB, Mean (SD)” value [5] was 10.53 (2.911) mg/dL, the “48 Hours/Early termination unadjusted TSB, Median” value [5] was 11.60 mg/dL and the “48 Hours/Early termination unadjusted TSB, Min” value [5] was 4.2 mg/dL. The “48 Hours/Early termination change from baseline in unadjusted TSB, LS mean (SEM)” value (3.0 mg/kg, 48 Hours/Early termination, PP Population, LOCF, ANCOVA) was 2.20 (0.881) mg/dL, the “6 hrs Percent Change from Baseline in TSB, Max” value [6] was 59.0% and the “6 hrs Percent Change from Baseline in TSB, Mean (SD)” value [6] was 19.54 (12.055) %. The “6 hrs Percent Change from Baseline in TSB, Min” value [6] was −2.6%, the “6 hrs TSB, Max” value [6] was 12.3 mg/dL and the “6 hrs TSB, Mean (SD)” value [6] was 9.74 (1.730) mg/dL. For the same substance, the “6 hrs TSB, Min” value [6] was 6.8 mg/dL, the “12 hrs Percent Change from Baseline in TSB, Max” value [7] was 73.8% and the “12 hrs Percent Change from Baseline in TSB, Mean (SD)” value [7] was 26.17 (15.650) %. The “12 hrs Percent Change from Baseline in TSB, Min” value [7] was 0.0%, the “12 hrs TSB, Max” value [7] was 12.2 mg/dL and the “12 hrs TSB, Mean (SD)” value [7] was 10.26 (1.748) mg/dL. For the same substance, the “12 hrs TSB, Min” value [7] was 6.9 mg/dL, the “24 hrs Percent Change from Baseline in TSB, Max” value [8] was 86.9% and the “24 hrs Percent Change from Baseline in TSB, Mean (SD)” value [8] was 24.84 (23.900) %. The “24 hrs Percent Change from Baseline in TSB, Median” value [8] was 23.00%, the “24 hrs Percent Change from Baseline in TSB, Min” value [8] was −11.8% and the “24 hrs TSB, Max” value [8] was 11.9 mg/dL. The “24 hrs TSB, Mean (SD)” value [8] was 10.06 (1.757) mg/dL, the “24 hrs TSB, Min” value [8] was 6.7 mg/dL and the “48 hrs Percent Change from Baseline in TSB, Max” value [9] was 88.5%. For the same substance, the “48 hrs Percent Change from Baseline in TSB, Mean (SD)” value [9] was 31.84 (36.062) %, the “48 hrs Percent Change from Baseline in TSB, Min” value [9] was −44.7% and the “48 hrs TSB, Max” value [9] was 14.1 mg/dL. For the same substance, the “48 hrs TSB, Mean (SD)” value [9] was 10.68 (2.956) mg/dL, the “48 hrs TSB, Min” value [9] was 4.2 mg/dL and the “mean TSB levels” value (3.0 mg/kg, 14 days after treatment (text, not LOCF table)) was 5.23 mg/dL. For the same substance, the “Baseline unadjusted TSB, Max” value [10] was 10.4 mg/dL, the “Baseline unadjusted TSB, Mean (SD)” value [10] was 8.33 (1.585) mg/dL and the “Baseline unadjusted TSB, Median” value [10] was 8.90 mg/dL. For the same substance, the “Baseline unadjusted TSB, Min” value [10] was 6.0 mg/dL, the “Baseline TSB, Max” value [11] was 10.4 mg/dL and the “Baseline TSB, Mean (SD)” value [11] was 8.21 (1.577) mg/dL. For the same substance, the “Baseline TSB, Min” value [11] was 5.5 mg/dL, the “Change from baseline of total serum bilirubin” value (6 hours, preliminary data) was 1.69 ± 0.50 and the “Change from baseline of total serum bilirubin” value (24 hours, preliminary data) was 0.93 ± 0.20. The “Change from baseline of total serum bilirubin” value (48 hours, preliminary data) was 0.80 ± 2.79, the total serum bilirubin (4.5 mg/kg IM (N = 5), 48 hours, treated per protocol, preliminary data) was 9.88 ± 2.8 and the “adjusted TSB, Mean (SD)” value (4.5 mg/kg IM, 6 h, LOCF) was −4.49 (11.322) %. For the same substance, the “change from baseline in adjusted TSB, Mean (SD)” value (4.5 mg/kg IM, 6 h, LOCF) was 4.70 (4.583) %, the “change from baseline in adjusted TSB, Median” value (4.5 mg/kg IM, 6 h, LOCF) was 4.10% and the “change from baseline in unadjusted TSB, Mean (SD)” value (4.5 mg/kg IM, 6 h, LOCF) was 1.69 (0.493) mg/dL. For the same substance, the “change from baseline in unadjusted TSB, Median” value (4.5 mg/kg IM, 6 h, LOCF) was 1.61 mg/dL, the “unadjusted TSB, Mean (SD)” value (4.5 mg/kg IM, 6 h, LOCF) was 11.27 (2.074) mg/dL and the “unadjusted TSB, Median” value (4.5 mg/kg IM, 6 h, LOCF) was 11.25 mg/dL. For the same substance, the “change from baseline in adjusted TSB, LS mean (SEM)” value [12] was 4.03 (2.697) %, the “change from baseline in adjusted TSB, LS mean difference versus placebo” value [12] was −0.35% and the “change from baseline in unadjusted TSB, LS Mean (SEM)” value [12] was 1.62 (0.293) mg/dL. For the same substance, the “change from baseline in unadjusted TSB, LS Mean Difference versus placebo” value [12] was 0.03 mg/dL, the “change from baseline in adjusted TSB, LS mean difference versus placebo, MMRM” value (4.5 mg/kg IM, 6 h) was −2.38% and the “change from baseline in adjusted TSB, LS means (SEM), MMRM” value (4.5 mg/kg IM, 6 h) was 2.00 (2.825) %. The “adjusted TSB, Mean (SD)” value (4.5 mg/kg IM, 12 h, LOCF) was −7.80 (9.906) %, the “change from baseline in adjusted TSB, Mean (SD)” value (4.5 mg/kg IM, 12 h, LOCF) was 1.39 (6.394) % and the “change from baseline in adjusted TSB, Median” value (4.5 mg/kg IM, 12 h, LOCF) was −0.70%. For the same substance, the “change from baseline in unadjusted TSB, Mean (SD)” value (4.5 mg/kg IM, 12 h, LOCF) was 1.89 (0.421) mg/dL, the “change from baseline in unadjusted TSB, Median” value (4.5 mg/kg IM, 12 h, LOCF) was 1.92 mg/dL and the “unadjusted TSB, Mean (SD)” value (4.5 mg/kg IM, 12 h, LOCF) was 11.48 (1.924) mg/dL. The “unadjusted TSB, Median” value (4.5 mg/kg IM, 12 h, LOCF) was 11.27 mg/dL, the “change from baseline in adjusted TSB, LS mean (SEM)” value [13] was 2.17 (3.960) % and the “change from baseline in adjusted TSB, LS mean difference versus placebo” value [13] was −4.96%. The “change from baseline in unadjusted TSB, LS Mean (SEM)” value [13] was 1.95 (0.453) mg/dL, the “change from baseline in unadjusted TSB, LS Mean Difference versus placebo” value [13] was -0.65 mg/dL and the “change from baseline in adjusted TSB, LS mean difference versus placebo, MMRM” value (4.5 mg/kg IM, 12 h) was −8.38%. For the same substance, the “change from baseline in adjusted TSB, LS means (SEM), MMRM” value (4.5 mg/kg IM, 12 h) was −2.41 (3.856) %, the “adjusted TSB, Mean (SD)” value (4.5 mg/kg IM, 24 h, LOCF) was −24.66 (15.145) % and the “change from baseline in adjusted TSB, Mean (SD)” value (4.5 mg/kg IM, 24 h, LOCF) was −15.48 (18.694) %.
